From ChEMBL document CHEMBL3885861, “Open TG-GATES”

Species on record: Rattus norvegicus
Test: Open TG-GATES - Regimen: Single
Type: toxicity, organism-based, Sprague-Dawley
Design: regimen Single, gender Male, age 6 weeks
Conditions: in vivo, po, 30 mg/kg, route gavage, dose level Low; for APTT / Bas / Eos / Fbg / Hb / Ht / Lym / MCH / MCHC / MCV / Mono / Neu / PT / Plat / RBC / Ret / WBC: tissue Blood; for KIDNEY_L / KIDNEY_R / KIDNEY_TOTAL: tissue Kidney; for LIVER: tissue Liver; for A/G / ALP / ALT / AST / BUN / CRE / Ca / Cl / DBIL / GLC / IP / K / LDH / Na / PL / RALB / TBIL / TC / TG / TP / gamma-GTP: tissue Plasma

Structure (SMILES): Brc1ccccc1 [BROMOBENZENE]
- TERMINAL_BW (3 h): 190.8 g
- APTT (3 h): 14.7 s
- Bas (3 h): 0%
- Eos (3 h): 0.8%
- Fbg (3 h): 276.2 mg/dL
- Hb (3 h): 12.9 g/dL
- Ht (3 h): 38.6%
- Lym (3 h): 77%
- MCH (3 h): 21.7 pg
- MCHC (3 h): 33.6%
- MCV (3 h): 64.5 fL
- Mono (3 h): 3%
- Neu (3 h): 18.4%
- PT (3 h): 12.3 s
- Plat (3 h): 116 x10_4/uL
- RBC (3 h): 597.6 x10_4/ul
- Ret (3 h): 9.5%
- WBC (3 h): 95.3 x10_2/uL
- KIDNEY_L (3 h): 0.8 g
- KIDNEY_R (3 h): 0.8 g
- KIDNEY_TOTAL (3 h): 1.6 g
- LIVER (3 h): 7.9 g
- A/G (3 h): 0.9
- ALP (3 h): 1807.2 IU/L
- ALT (3 h): 47.6 IU/L
- AST (3 h): 80 IU/L
- BUN (3 h): 11 mg/dL
- CRE (3 h): 0.2 mg/dL
- Ca (3 h): 11.4 mg/dL
- Cl (3 h): 106.2 meq/L
- DBIL (3 h): 0.024 mg/dL
- GLC (3 h): 182 mg/dL
- IP (3 h): 9.4 mg/dL
- K (3 h): 4 meq/L
- LDH (3 h): 75.6 IU/L
- Na (3 h): 141.6 meq/L
- PL (3 h): 174.2 mg/dL
- RALB (3 h): 2.6 g/dL
- TBIL (3 h): 0.056 mg/dL
- TC (3 h): 93.6 mg/dL
- TG (3 h): 80.6 mg/dL
- TP (3 h): 5.7 g/dL
- gamma-GTP (3 h): 1.2 IU/L
- TERMINAL_BW (6 h): 192.5 g
- APTT (6 h): 15.9 s
- Bas (6 h): 0%
- Eos (6 h): 1%
- Fbg (6 h): 250 mg/dL
- Hb (6 h): 12.8 g/dL
- Ht (6 h): 38.3%
- Lym (6 h): 78.6%
- MCH (6 h): 21.7 pg
- MCHC (6 h): 33.3%
- MCV (6 h): 65 fL
- Mono (6 h): 3.4%
- Neu (6 h): 16.6%
- PT (6 h): 12.6 s
- Plat (6 h): 110.6 x10_4/uL
- RBC (6 h): 590.4 x10_4/ul
- Ret (6 h): 9.4%
- WBC (6 h): 105.9 x10_2/uL
- KIDNEY_L (6 h): 0.8 g
- KIDNEY_R (6 h): 0.8 g
- KIDNEY_TOTAL (6 h): 1.6 g
- LIVER (6 h): 7.4 g
- A/G (6 h): 0.9
- ALP (6 h): 1769.6 IU/L
- ALT (6 h): 41 IU/L
- AST (6 h): 75.8 IU/L
- BUN (6 h): 10.6 mg/dL
- CRE (6 h): 0.2 mg/dL
- Ca (6 h): 11.1 mg/dL
- Cl (6 h): 107.2 meq/L
- DBIL (6 h): 0.018 mg/dL
- GLC (6 h): 180.8 mg/dL
- IP (6 h): 10.3 mg/dL
- K (6 h): 3.9 meq/L
- LDH (6 h): 71.2 IU/L
- Na (6 h): 141.8 meq/L
- PL (6 h): 139.2 mg/dL
- RALB (6 h): 2.5 g/dL
- TBIL (6 h): 0.058 mg/dL
- TC (6 h): 74.6 mg/dL
- TG (6 h): 53 mg/dL
- TP (6 h): 5.3 g/dL
- gamma-GTP (6 h): 1.4 IU/L
- TERMINAL_BW (9 h): 193.2 g
- APTT (9 h): 15.6 s
- Bas (9 h): 0%
- Eos (9 h): 1%
- Fbg (9 h): 262.2 mg/dL
- Hb (9 h): 13.3 g/dL
- Ht (9 h): 39.4%
- Lym (9 h): 70.8%
- MCH (9 h): 21.5 pg
- MCHC (9 h): 33.7%
- MCV (9 h): 64 fL
- Mono (9 h): 3.2%
- Neu (9 h): 24.6%
- PT (9 h): 12.7 s
- Plat (9 h): 118.3 x10_4/uL
- RBC (9 h): 617.2 x10_4/ul
- Ret (9 h): 9%
- WBC (9 h): 92.1 x10_2/uL
- KIDNEY_L (9 h): 0.8 g
- KIDNEY_R (9 h): 0.8 g
- KIDNEY_TOTAL (9 h): 1.6 g
- LIVER (9 h): 7 g
- A/G (9 h): 0.9
- ALP (9 h): 1907.6 IU/L
- ALT (9 h): 41.2 IU/L
- AST (9 h): 73.4 IU/L
- BUN (9 h): 10.2 mg/dL
- CRE (9 h): 0.1 mg/dL
- Ca (9 h): 10.7 mg/dL
- Cl (9 h): 106.2 meq/L
- DBIL (9 h): 0.016 mg/dL
- GLC (9 h): 189.6 mg/dL
- IP (9 h): 11.5 mg/dL
- K (9 h): 3.9 meq/L
- LDH (9 h): 72.8 IU/L
- Na (9 h): 142.2 meq/L
- PL (9 h): 136.8 mg/dL
- RALB (9 h): 2.5 g/dL
- TBIL (9 h): 0.058 mg/dL
- TC (9 h): 79.6 mg/dL
- TG (9 h): 41.6 mg/dL
- TP (9 h): 5.3 g/dL
- gamma-GTP (9 h): 1.6 IU/L
- TERMINAL_BW (24 h): 199 g
- APTT (24 h): 15.2 s
- Bas (24 h): 0%
- Eos (24 h): 1.2%
- Fbg (24 h): 248.6 mg/dL
- Hb (24 h): 12.7 g/dL
- Ht (24 h): 37.2%
- Lym (24 h): 71.6%
- MCH (24 h): 21.4 pg
- MCHC (24 h): 34%
- MCV (24 h): 63.1 fL
- Mono (24 h): 3.4%
- Neu (24 h): 23.6%
- PT (24 h): 12.3 s
- Plat (24 h): 117.9 x10_4/uL
- RBC (24 h): 589.2 x10_4/ul
- Ret (24 h): 8.2%
- WBC (24 h): 96.4 x10_2/uL
- KIDNEY_L (24 h): 0.8 g
- KIDNEY_R (24 h): 0.8 g
- KIDNEY_TOTAL (24 h): 1.7 g
- LIVER (24 h): 9.2 g
- A/G (24 h): 0.9
- ALP (24 h): 1811.4 IU/L
- ALT (24 h): 52.8 IU/L
- AST (24 h): 78.8 IU/L
- BUN (24 h): 15.4 mg/dL
- CRE (24 h): 0.2 mg/dL
- Ca (24 h): 10.4 mg/dL
- Cl (24 h): 106.2 meq/L
- DBIL (24 h): 0.012 mg/dL
- GLC (24 h): 196.8 mg/dL
- IP (24 h): 8.1 mg/dL
- K (24 h): 4.2 meq/L
- LDH (24 h): 112.6 IU/L
- Na (24 h): 141.6 meq/L
- PL (24 h): 137.4 mg/dL
- RALB (24 h): 2.5 g/dL
- TBIL (24 h): 0.05 mg/dL
- TC (24 h): 71.8 mg/dL
- TG (24 h): 79.4 mg/dL
- TP (24 h): 5.4 g/dL
- gamma-GTP (24 h): 0.8 IU/L
